Experimental data as given in the NIST ThermoML archive (doi:10.1016/j.tca.2013.03.017).

How the values were obtained:
[1] = xn = mol fraction of the nth substance listed; conditions: 101 kPa, Liquid, Hot wire method
[2] = molar heat capacity at constant pressure; xn = mol fraction of the nth substance listed; conditions: 101 kPa, Liquid, Small sample (50 mg) DSC

O=S1(=O)CCCC1 [sulfolane] + O
Conditions | molar heat capacity at constant pressure, [2] [J/K/mol] | thermal conductivity, [1] [W/m/K]
303.15 K, x1 = 0.1 | 87.62 | 0.3861
303.15 K, x1 = 0.198 | 99.49 | 0.296
303.15 K, x1 = 0.299 | 112 | 0.2563
303.15 K, x1 = 0.397 | 123.4 | 0.2358
303.15 K, x1 = 0.493 | 133.8 | 0.2206
303.15 K, x1 = 0.6 | 144.9 | 0.2028
303.15 K, x1 = 0.699 | 154.4 | 0.1911
303.15 K, x1 = 0.8 | 163.7 | 0.1809
303.15 K, x1 = 0.899 | 172.4 | 0.1739
303.15 K, x1 = 1 | 181.5 | 0.1678
313.15 K, x1 = 0.1 | 88.47 | 0.3969
313.15 K, x1 = 0.198 | 100.9 | 0.2979
313.15 K, x1 = 0.299 | 113.9 | 0.2583
313.15 K, x1 = 0.397 | 125.6 | 0.2334
313.15 K, x1 = 0.493 | 136.4 | 0.22
313.15 K, x1 = 0.6 | 148 | 0.2012
313.15 K, x1 = 0.699 | 157.9 | 0.1896
313.15 K, x1 = 0.8 | 167.2 | 0.1797
313.15 K, x1 = 0.899 | 176 | 0.1719
313.15 K, x1 = 1 | 185.1 | 0.1656
323.15 K, x1 = 0.1 | 89.1 | 0.4026
323.15 K, x1 = 0.198 | 102.2 | 0.2965
323.15 K, x1 = 0.299 | 115.3 | 0.2558
323.15 K, x1 = 0.397 | 127.5 | 0.2316
323.15 K, x1 = 0.493 | 138.8 | 0.2167
323.15 K, x1 = 0.6 | 150.6 | 0.1993
323.15 K, x1 = 0.699 | 160.9 | 0.1883
323.15 K, x1 = 0.8 | 170.9 | 0.1788
323.15 K, x1 = 0.899 | 179.7 | 0.1715
323.15 K, x1 = 1 | 188.7 | 0.1634
333.15 K, x1 = 0.1 | 89.75 | 0.4084
333.15 K, x1 = 0.198 | 103.6 | 0.295
333.15 K, x1 = 0.299 | 117.3 | 0.2507
333.15 K, x1 = 0.397 | 129.9 | 0.2304
333.15 K, x1 = 0.493 | 141.5 | 0.2133
333.15 K, x1 = 0.6 | 153.8 | 0.1986
333.15 K, x1 = 0.699 | 164.5 | 0.1876
333.15 K, x1 = 0.8 | 174.3 | 0.1779
333.15 K, x1 = 0.899 | 183.3 | 0.1699
333.15 K, x1 = 1 | 192.3 | 0.1616
343.15 K, x1 = 0.1 | 90.42 | 0.4085
343.15 K, x1 = 0.198 | 104.5 | 0.2893
343.15 K, x1 = 0.299 | 118.5 | 0.2417
343.15 K, x1 = 0.397 | 131.7 | 0.2229
343.15 K, x1 = 0.493 | 143.5 | 0.2092
343.15 K, x1 = 0.6 | 155.8 | 0.1966
343.15 K, x1 = 0.699 | 166.4 | 0.1852
343.15 K, x1 = 0.8 | 176.4 | 0.1765
343.15 K, x1 = 0.899 | 185.6 | 0.1676
343.15 K, x1 = 1 | 194.3 | 0.1593
353.15 K, x1 = 0.1 | 91.42 | 0.4058
353.15 K, x1 = 0.198 | 106.2 | 0.287
353.15 K, x1 = 0.299 | 120.8 | 0.2399
353.15 K, x1 = 0.397 | 134 | 0.2185
353.15 K, x1 = 0.493 | 146.1 | 0.204
353.15 K, x1 = 0.6 | 158.8 | 0.1921
353.15 K, x1 = 0.699 | 169.6 | 0.1817
353.15 K, x1 = 0.8 | 179.9 | 0.173
353.15 K, x1 = 0.899 | 189.2 | 0.1657
353.15 K, x1 = 1 | 197.8 | 0.1581
